Literature values, collected in patent US7799547B2, “Purified polypeptides from Staphylococcus aureus” (Affinium Pharmaceuticals, Inc., priority 2003, dated 2010).

What was measured:
MRSA strain WCUH29 = details: rat, oral administration at 50 mg/kg
[1] = system: panel of clinical isolates of S. aureus; details: clinical isolates of S. aureus resistant to different classes of antibiotics
S. aureus FabI = S. aureus FabI (Staphylococcus aureus, UniProt Q6GI75)
E. coli FabI = E. coli FabI (Escherichia coli, UniProt P0AEK4)
E. coli FabI, sequence (P0AEK4 whole entry): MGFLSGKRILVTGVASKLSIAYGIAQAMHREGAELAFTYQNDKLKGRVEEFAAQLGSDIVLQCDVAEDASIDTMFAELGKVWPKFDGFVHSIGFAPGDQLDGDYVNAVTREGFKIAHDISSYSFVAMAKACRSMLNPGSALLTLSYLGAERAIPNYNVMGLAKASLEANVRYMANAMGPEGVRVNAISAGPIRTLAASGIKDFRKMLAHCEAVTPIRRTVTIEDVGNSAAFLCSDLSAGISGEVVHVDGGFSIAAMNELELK

MIC90 fold lower than those of the commercial antibiotics tested [1] [fold]	Structure (SMILES)	Reduction in bacterial counts relative to untreated controls (MRSA strain WCUH29) [log]	Inhibition of S. aureus FabI (S. aureus FabI)	Inhibition of E. coli FabI (E. coli FabI)
> 500	Cc1[nH]c2ccccc2c1CN(C)C(=O)/C=C/c1cnc2c(c1)CCC(=O)N2 [API-1135]	3.5	–	–
–	Oc1c(Cl)cc(Cl)c(Cl)c1Cc1c(O)c(Cl)cc(Cl)c1Cl [hexachlorophene]	–	inhibited	inhibited
–	Oc1cc(Cl)ccc1Oc1ccc(Cl)cc1Cl [triclosan]	–	inhibited	inhibited
